Measurements as given in patent US10267737B2, “Near-infrared fluorescent probe for detecting alkaline phosphatase and manufacturing method thereof” (KOREA RESEARCH INSTITUTE OF BIOSCIENCE AND BIOTECHNOLOGY, priority 2016, dated 2019).

What was measured:
[1] = Affinity for scaffold, light absorption of probe solution after adsorption; type: binding; conditions: CDHA scaffold
[2] = as above; type: binding; conditions: CDHA/DCPD scaffold
[3] = Fluorescence stability (photostability) test; type: physicochemical; conditions: 685 nm light, 150-W xenon lamp, 1 hour, Tris-HCl 10 mM, pH 7.4
Method: The photostability of a fluorescent probe is important for in-vitro and in-vivo fluorescence detection. Therefore, the photostability of the NIR-Phos-1 and NIR-Phos-2 fluorescent probes was evaluated by irradiating light at 685 nm from a 150-W xenon lamp for 1 hour in a Tris-HCl buffer (10 mM, pH 7.4) and measuring the change in fluorescence intensity.

ALP [4] = test: Fluorescence response depending on ALP concentration; type: biochemical; conditions: for new absorption peak in the presence of ALP: probe 5 μM, ALP 0.1 UmL^−1, Tris-HCl 10 mM, pH 7.4; for fluorescence due to dephosphorylation of ALP: λex=685 nm
Method: Reactivity depending on ALP concentration was evaluated for the NIR-Phos-1 and NIR-Phos-2 fluorescent probes. After dissolving the fluorescent probe (5 μM) in a Tri-HCl buffer (10 mM, pH 7.4), the fluorescence spectrum occurring as a result of reaction with ALP (0.1 UmL^−1) was investigated.
From FIG. 5B and FIG. 5D, it can be seen that fluorescence spectra are changed variously by adding a Tris-HCl buffer (10 mM, pH 7.4) to ALP (10^−5 to 1.0 UmL^−1) of various concentrations.

ALP [5] = test: Evaluation of sensitivity for ALP with ALP inhibitor p-BTO pre-treatment; type: biochemical; conditions: for sensitivity for ALP: with and without p-BTO pre-treatment
Method: After pre-treating with the ALP inhibitor p-BTO (p-bromotetramisole oxalate) at 1-2.5 mM, the fluorescent probe was mixed with ALP.

[6] = Affinity for calcium salts, NIR fluorescence imaging; type: binding; conditions: PBS buffer
Method: The affinity of the NIR-Phos-1 and NIR-Phos-2 fluorescent probes for a calcium salt-containing scaffold was evaluated. As the scaffold, calcium carbonate (CC), calcium phosphate (CP), hydroxyapatite (HA), calcium perchlorate (CPC), calcium chloride (CCH) and calcium nitrate (CN) were used. The fluorescent probe and the scaffold were immersed in a PBS buffer and subjected to NIR fluorescence imaging.

ALP [7] = test: Evaluation of selective ALP detection; type: biochemical; conditions: versus BSA, trypsin, lysozyme, AcHE, GOx, uricase, thrombin
Source text: ALP, BSA, trypsin, lysozyme, acetylcholinesterase (AcHE), glucose oxidase (GOx), uricase and thrombin were used for the evaluation.

SMILES	decrease of light absorption by the probe solution after adsorption [1]	decrease of light absorption by the probe solution after adsorption [2]	photostability (change in fluorescence intensity) [3]	new absorption peak in the presence of ALP (ALP [4])	fluorescence due to dephosphorylation of ALP (ALP [4])	sensitivity for ALP (ALP [5])	affinity for hydroxyapatite (HA) particles compared to calcium salts CC, CP, CPC, CCH, CN [6]	selective detection of ALP (ALP [7])	hydrolysis of the fluorescent probe and ALP (ALP [5]; p-BTO 1-2.5 mM pre-treatment, fluorescence intensity decreased gradually as p-BTO concentration increased)
CC[N+]1=C(/C=C/C2=C3Oc4cc(OCc5ccc(OP(=O)(O)O)cc5)ccc4C=C3CCC2)C(C)(C)c2cc(S(=O)(=O)[O-])ccc21 [NIR-Phos-1, (E)-1-ethyl-3,3-dimethyl-2-(2-(6-((4-(phosphonooxy)benzyl)oxy)-2,3-dihydro-1H-xanthen-4-yl)vinyl)-3H-indol-1-ium-5-sulfonate]	29.4%	3.8%	superior photostability	710 nm	710 nm	good sensitivity	higher affinity	selectively detect ALP only	
CC[N+]1=C(/C=C/C2=C3Oc4cc(OP(=O)(O)O)ccc4C=C3CCC2)C(C)(C)c2cc(S(=O)(=O)[O-])ccc21 [NIR-Phos-2, (E)-1-ethyl-3,3-dimethyl-2-(2-(6-(phosphonooxy)-2,3-dihydro-1H-xanthen-4-yl)vinyl)-3H-indol-1-ium-5-sulfonate]			superior photostability	710 nm	710 nm	good sensitivity	higher affinity	selectively detect ALP only	
Brc1ccc(C2CN3CCSC3=N2)cc1.O=C(O)C(=O)O (stereo not drawn) [p-BTO, p-bromotetramisole oxalate, reference compound]									inhibited
